Experimental data from ChEMBL document CHEMBL1201862, “PubChem BioAssay data set” (2004).
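A five-concentration, 48-hour dose response in 96-well plates underlies each endpoint, interpolated linearly between surrounding concentrations. Abbreviation: GI50, concentration required for 50% inhibition of growth.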 Calls of active or inactive are those of the source. No stated cut-off is given here; in the data, active = GI50 up to about 1.1 µM and inactive = higher.

What was measured:
Experiment in all cases: NCI tumour cell line growth inhibition, 48 h
MDA-MB-435 = system: MDA-MB-435
LOX IMVI = system: LOX IMVI
SF-268 = system: SF-268
K562 = system: K562
SNB-75 = system: SNB-75
IGROV-1 = system: IGROV-1
ACHN = system: ACHN
SK-MEL-2 = system: SK-MEL-2
SW-620 = system: SW-620
U-251 = system: U-251
DU-145 = system: DU-145
CCRF-CEM = system: CCRF-CEM
NCI-H23 = system: NCI-H23
UO-31 = system: UO-31
SN12C = system: SN12C
Malme-3M = system: Malme-3M
HL-60 = system: HL-60
MDA-MB-231 = system: MDA-MB-231
SNB-19 = system: SNB-19
HCC 2998 = system: HCC 2998

Measured: GI50

O=C(O)c1cc(CCc2cc(O)ccc2O)ccc1O
inactive: MDA-MB-435 > 100 µM | LOX IMVI 32.1 µM | SF-268 > 100 µM | K562 37.2 µM | SNB-75 > 100 µM | IGROV-1 > 100 µM | ACHN > 100 µM | SK-MEL-2 > 100 µM | SW-620 39.2 µM | U-251 > 100 µM | DU-145 > 100 µM | CCRF-CEM 26.9 µM | NCI-H23 > 100 µM | UO-31 > 100 µM | SN12C > 100 µM | Malme-3M > 100 µM | HL-60 30.6 µM

Cc1ncc(COP(=O)(O)O)c(C)c1O
inactive: MDA-MB-231 > 100 µM | MDA-MB-435 > 100 µM | LOX IMVI > 100 µM | SF-268 > 100 µM | K562 > 100 µM | IGROV-1 > 100 µM | ACHN > 100 µM | SK-MEL-2 > 100 µM | SW-620 > 100 µM | U-251 > 100 µM | NCI-H23 > 100 µM | UO-31 > 100 µM | SN12C > 100 µM | Malme-3M > 100 µM | SNB-19 > 100 µM | HL-60 > 100 µM

N#Cc1c(C#N)c(SSc2c(C#N)c(C#N)c(N)n2-c2ccccc2)n(-c2ccccc2)c1N
inactive: MDA-MB-231 40.9 µM | MDA-MB-435 14.9 µM | LOX IMVI 86.7 µM | SF-268 27.7 µM | K562 4.38 µM | HCC 2998 20.9 µM | SNB-75 31.8 µM | IGROV-1 28.4 µM | ACHN 5.08 µM | SK-MEL-2 21.1 µM | SW-620 1.77 µM | U-251 21.6 µM | DU-145 18.6 µM | NCI-H23 23.6 µM | UO-31 1.91 µM | SN12C 19.7 µM | Malme-3M 2 µM | SNB-19 22.4 µM

COc1ccc(NC(=O)CC2SC(Nc3ccc(Cl)cc3C)=NC2=O)c([N+](=O)[O-])c1 (stereo not drawn)
inactive: LOX IMVI > 100 µM | SF-268 > 100 µM | K562 > 100 µM | HCC 2998 > 100 µM | SNB-75 > 100 µM | IGROV-1 > 100 µM | ACHN > 100 µM | SK-MEL-2 > 100 µM | SW-620 > 100 µM | U-251 > 100 µM | CCRF-CEM > 100 µM | NCI-H23 > 100 µM | UO-31 > 100 µM | SN12C > 100 µM | Malme-3M > 100 µM | SNB-19 > 100 µM | HL-60 > 100 µM

O=C1C(NCCc2cc(Cl)c(O)c(Cl)c2)=CC(=O)c2[nH]cnc21
inactive: MDA-MB-231 31 µM | MDA-MB-435 16.7 µM | LOX IMVI 35.2 µM | K562 26 µM | HCC 2998 38.8 µM | IGROV-1 18.5 µM | ACHN 47 µM | SK-MEL-2 19.2 µM | SW-620 47.8 µM | U-251 39.7 µM | NCI-H23 17.9 µM | UO-31 > 100 µM | SN12C 30 µM | Malme-3M 4.57 µM | SNB-19 33.7 µM | HL-60 17.4 µM

Cc1ccc(S(=O)(=O)c2ccsc2NC(=O)C(F)(F)F)cc1
inactive: MDA-MB-231 24.5 µM | MDA-MB-435 44.5 µM | LOX IMVI 28.2 µM | SF-268 28.3 µM | HCC 2998 29 µM | SNB-75 24.9 µM | IGROV-1 62.8 µM | ACHN 39.2 µM | SK-MEL-2 26.3 µM | SW-620 57.3 µM | U-251 70.8 µM | DU-145 42.6 µM | NCI-H23 34.5 µM | UO-31 28.9 µM | SN12C 25.2 µM | Malme-3M 40.7 µM | SNB-19 65 µM

CN(C)C(=O)C(F)(F)C(c1ccc(C(F)(F)F)cc1)C1C(=O)N(C)C(=O)N(C)C1=O (stereo not drawn)
inactive: MDA-MB-231 > 100 µM | MDA-MB-435 > 100 µM | LOX IMVI > 100 µM | SF-268 > 100 µM | HCC 2998 > 100 µM | SNB-75 > 100 µM | ACHN > 100 µM | SK-MEL-2 > 100 µM | SW-620 > 100 µM | U-251 > 100 µM | DU-145 > 100 µM | CCRF-CEM > 100 µM | NCI-H23 > 100 µM | UO-31 > 100 µM | SNB-19 > 100 µM

O=C(O)c1ccccc1/C=N/N=C1NCCN1
inactive: MDA-MB-231 > 100 µM | MDA-MB-435 > 100 µM | LOX IMVI > 100 µM | SF-268 97.9 µM | K562 > 100 µM | HCC 2998 > 100 µM | SNB-75 > 100 µM | IGROV-1 > 100 µM | ACHN 98.9 µM | SK-MEL-2 59.6 µM | SW-620 > 100 µM | U-251 > 100 µM | CCRF-CEM > 100 µM | NCI-H23 > 100 µM | UO-31 44.4 µM | Malme-3M 88.1 µM | SNB-19 > 100 µM | HL-60 49.4 µM

N#Cc1nc(CSCc2ccccc2)oc1N
inactive: MDA-MB-231 > 100 µM | MDA-MB-435 > 100 µM | SF-268 > 100 µM | HCC 2998 > 100 µM | IGROV-1 > 100 µM | ACHN > 100 µM | SK-MEL-2 > 100 µM | SW-620 > 100 µM | U-251 > 100 µM | DU-145 > 100 µM | CCRF-CEM 19.8 µM | NCI-H23 > 100 µM | UO-31 > 100 µM | SN12C > 100 µM | Malme-3M 1.35 µM

COc1ccc2nc3ccc(OC)cc3c(SCC3CO3)c2c1 (stereo not drawn)
inactive: MDA-MB-231 15 µM | MDA-MB-435 18.2 µM | LOX IMVI 15.4 µM | SF-268 13.2 µM | K562 8.59 µM | HCC 2998 15.6 µM | SNB-75 37.2 µM | ACHN 8.71 µM | SK-MEL-2 14.2 µM | SW-620 11.1 µM | U-251 12.7 µM | CCRF-CEM 6.85 µM | NCI-H23 17.2 µM | UO-31 12.3 µM | SN12C 13.8 µM | Malme-3M 14.1 µM | SNB-19 24.6 µM

C[C@H]1CC(=O)C2=CCCC3(SCCCS3)[C@@H]2[C@H]1CO
inactive: LOX IMVI > 100 µM | SF-268 > 100 µM | K562 47.1 µM | HCC 2998 > 100 µM | SNB-75 > 100 µM | IGROV-1 > 100 µM | ACHN > 100 µM | SK-MEL-2 > 100 µM | SW-620 > 100 µM | U-251 91.4 µM | CCRF-CEM 26.9 µM | NCI-H23 > 100 µM | UO-31 > 100 µM | SN12C > 100 µM | Malme-3M > 100 µM | SNB-19 > 100 µM | HL-60 27.1 µM

NC1C/C(=N\O)c2c(Cl)sc(Cl)c21 (stereo not drawn)
inactive: MDA-MB-435 15.6 µM | LOX IMVI 3.11 µM | SF-268 29.4 µM | K562 43.2 µM | HCC 2998 92.7 µM | SNB-75 25.2 µM | IGROV-1 17 µM | ACHN 21.8 µM | SK-MEL-2 19.7 µM | SW-620 17.9 µM | DU-145 15.1 µM | CCRF-CEM 3.17 µM | NCI-H23 17.1 µM | UO-31 17.4 µM | SN12C 19.1 µM | Malme-3M 19.5 µM | SNB-19 31.3 µM | HL-60 21.4 µM

O=C1CS[C@@](CC(c2ccc(Cl)cc2)c2ccc(Cl)cc2)(c2ccc(Cl)cc2)N1
inactive: MDA-MB-435 14 µM | LOX IMVI 8.53 µM | SF-268 17.5 µM | K562 5.15 µM | HCC 2998 19.5 µM | SNB-75 33.5 µM | IGROV-1 26.4 µM | ACHN 11.2 µM | SK-MEL-2 19.3 µM | SW-620 18.2 µM | U-251 10.2 µM | DU-145 39.1 µM | CCRF-CEM 4.71 µM | NCI-H23 9.75 µM | UO-31 25.1 µM | SN12C 2.16 µM | Malme-3M 21.6 µM | SNB-19 33.2 µM | HL-60 3.8 µM

N#C/C(=C\c1ccc2ccccc2c1)C(=O)c1ccccc1
inactive: MDA-MB-435 19.4 µM | LOX IMVI 26.1 µM | SF-268 63.5 µM | K562 > 65.8 µM | HCC 2998 > 100 µM | SNB-75 93.1 µM | IGROV-1 > 100 µM | ACHN > 100 µM | SK-MEL-2 > 100 µM | SW-620 42.4 µM | U-251 21.9 µM | DU-145 > 100 µM | CCRF-CEM 23.8 µM | NCI-H23 > 57.4 µM | UO-31 > 86.7 µM | SN12C > 66.5 µM | Malme-3M > 95.7 µM | SNB-19 > 82.4 µM | HL-60 30.9 µM

N#CCCC(CC#N)N1CCN(C(CC#N)CCC#N)CC1 (stereo not drawn)
inactive: SF-268 > 100 µM | K562 > 100 µM | HCC 2998 > 100 µM | SNB-75 > 100 µM | IGROV-1 > 100 µM | ACHN > 100 µM | SW-620 > 100 µM | U-251 > 100 µM | DU-145 > 100 µM | CCRF-CEM > 100 µM | NCI-H23 > 100 µM | UO-31 > 100 µM | SN12C > 100 µM | Malme-3M > 100 µM | SNB-19 > 100 µM | HL-60 > 100 µM

CCC(C)(C)c1ccc(OCCCCNC(=O)c2ccc3ccccc3c2O)c(C(C)(C)CC)c1
inactive: MDA-MB-231 30 µM | SF-268 22.7 µM | K562 4.54 µM | HCC 2998 38.3 µM | SNB-75 29.8 µM | IGROV-1 31.2 µM | ACHN 16 µM | SK-MEL-2 30.8 µM | SW-620 18.3 µM | U-251 43 µM | DU-145 54.7 µM | CCRF-CEM 9.68 µM | NCI-H23 23.7 µM | UO-31 29.3 µM | SN12C 34.6 µM | Malme-3M 11 µM | SNB-19 55.2 µM | HL-60 29.1 µM
